# Results reported in PubChem BioAssay (NCI).
#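 Step 1: Grow cells in 96-well plates. Step 2: Expose to compound for 48 hours at 5 concentrations. Step 3: Interpolate endpoints linearly; if unreached, use highest concentration. GI50 is the concentration that inhibits growth by half. Definition used: TGI = concentration required for complete inhibition of growth.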
# Experiments:
# Experiment in all cases: NCI tumour cell line growth inhibition, 48 h
# 786-0 renal = system: 786-0 renal
# A498 renal = system: A498 renal
# A549 NSCLC = system: A549 NSCLC
# ACHN renal = system: ACHN renal
# BT-549 breast = system: BT-549 breast
# CAKI-1 renal = system: CAKI-1 renal
# CCRF-CEM leukemia = system: CCRF-CEM leukemia
# COLO 205 colon = system: COLO 205 colon
# DU-145 prostate = system: DU-145 prostate
# EKVX NSCLC = system: EKVX NSCLC
# HCC-2998 colon = system: HCC-2998 colon
# HCT-116 colon = system: HCT-116 colon
# HCT-15 colon = system: HCT-15 colon
# HL-60(TB) leukemia = system: HL-60(TB) leukemia
# HOP-62 NSCLC = system: HOP-62 NSCLC
# HOP-92 NSCLC = system: HOP-92 NSCLC
# HS 578T breast = system: HS 578T breast
# HT29 colon = system: HT29 colon
# IGROV1 ovarian = system: IGROV1 ovarian
# K-562 leukemia = system: K-562 leukemia
# KM12 colon = system: KM12 colon
# LOX IMVI melanoma = system: LOX IMVI melanoma
# M14 melanoma = system: M14 melanoma
# MALME-3M melanoma = system: MALME-3M melanoma
# MCF7 breast = system: MCF7 breast
# MDA-MB-231 breast = system: MDA-MB-231 breast
# MDA-MB-435 = system: MDA-MB-435
# MOLT-4 leukemia = system: MOLT-4 leukemia
# NCI-H226 lung = system: NCI-H226 lung
# NCI-H23 lung = system: NCI-H23 lung
# NCI-H460 lung = system: NCI-H460 lung
# NCI-H522 lung = system: NCI-H522 lung
# NCI/ADR-RES ovarian = system: NCI/ADR-RES ovarian
# OVCAR-3 ovarian = system: OVCAR-3 ovarian
# OVCAR-4 ovarian = system: OVCAR-4 ovarian
# OVCAR-5 ovarian = system: OVCAR-5 ovarian
# OVCAR-8 ovarian = system: OVCAR-8 ovarian
# PC-3 prostate = system: PC-3 prostate
# RPMI-8226 leukemia = system: RPMI-8226 leukemia
# RXF 393 renal = system: RXF 393 renal
# SF-268 CNS = system: SF-268 CNS
# SF-295 CNS = system: SF-295 CNS
# SF-539 CNS = system: SF-539 CNS
# SK-MEL-2 melanoma = system: SK-MEL-2 melanoma
# SK-MEL-28 melanoma = system: SK-MEL-28 melanoma
# SK-MEL-5 melanoma = system: SK-MEL-5 melanoma
# SK-OV-3 ovarian = system: SK-OV-3 ovarian
# SN12C renal = system: SN12C renal
# SNB-19 CNS = system: SNB-19 CNS
# SNB-75 CNS = system: SNB-75 CNS
# SR leukemia = system: SR leukemia
# SW-620 colon = system: SW-620 colon
# T-47D breast = system: T-47D breast
# TK-10 renal = system: TK-10 renal
# U251 CNS = system: U251 CNS
# UACC-257 melanoma = system: UACC-257 melanoma
# UACC-62 melanoma = system: UACC-62 melanoma
# UO-31 renal = system: UO-31 renal
compound,measurement,setting,value
CN(C)CCNc1ccc2ncc(C#Cc3cncc(C(=O)Nc4ccc(CN5CCN(C)CC5)c(C(F)(F)F)c4)c3)n2n1,GI50,786-0 renal,1040 nM
same,TGI,786-0 renal,2460 nM
same,GI50,A498 renal,3100 nM
same,TGI,A498 renal,9700 nM
same,GI50,A549 NSCLC,936 nM
same,TGI,A549 NSCLC,5460 nM
same,GI50,ACHN renal,1770 nM
same,TGI,ACHN renal,6580 nM
same,GI50,BT-549 breast,987 nM
same,TGI,BT-549 breast,1950 nM
same,GI50,CAKI-1 renal,713 nM
same,TGI,CAKI-1 renal,3660 nM
same,GI50,CCRF-CEM leukemia,28.4 nM
same,TGI,CCRF-CEM leukemia,5170 nM
same,GI50,COLO 205 colon,169 nM
same,TGI,COLO 205 colon,541 nM
same,GI50,DU-145 prostate,1000 nM
same,TGI,DU-145 prostate,4180 nM
same,GI50,EKVX NSCLC,1530 nM
same,TGI,EKVX NSCLC,5540 nM
same,GI50,HCC-2998 colon,953 nM
same,TGI,HCC-2998 colon,2650 nM
same,GI50,HCT-116 colon,247 nM
same,TGI,HCT-116 colon,1500 nM
same,GI50,HCT-15 colon,1570 nM
same,TGI,HCT-15 colon,6000 nM
same,GI50,HL-60(TB) leukemia,612 nM
same,TGI,HL-60(TB) leukemia,1810 nM
same,GI50,HOP-62 NSCLC,564 nM
same,TGI,HOP-62 NSCLC,2130 nM
same,GI50,HOP-92 NSCLC,181 nM
same,TGI,HOP-92 NSCLC,1850 nM
same,GI50,HS 578T breast,450 nM
same,TGI,HS 578T breast,1920 nM
same,GI50,HT29 colon,477 nM
same,TGI,HT29 colon,1950 nM
same,GI50,IGROV1 ovarian,955 nM
same,TGI,IGROV1 ovarian,3980 nM
same,GI50,K-562 leukemia,130 nM
same,TGI,K-562 leukemia,2420 nM
same,GI50,KM12 colon,76.5 nM
same,TGI,KM12 colon,918 nM
same,GI50,LOX IMVI melanoma,548 nM
same,TGI,LOX IMVI melanoma,1200 nM
same,GI50,M14 melanoma,1010 nM
same,TGI,M14 melanoma,3430 nM
same,GI50,MALME-3M melanoma,672 nM
same,TGI,MALME-3M melanoma,1620 nM
same,GI50,MCF7 breast,154 nM
same,TGI,MCF7 breast,1030 nM
same,GI50,MDA-MB-231 breast,463 nM
same,TGI,MDA-MB-231 breast,1900 nM
same,GI50,MDA-MB-435,746 nM
same,TGI,MDA-MB-435,4510 nM
same,GI50,MOLT-4 leukemia,226 nM
same,TGI,MOLT-4 leukemia,3420 nM
same,GI50,NCI-H226 lung,483 nM
same,TGI,NCI-H226 lung,3050 nM
same,GI50,NCI-H23 lung,764 nM
same,TGI,NCI-H23 lung,1830 nM
same,GI50,NCI-H460 lung,406 nM
same,TGI,NCI-H460 lung,1180 nM
same,GI50,NCI-H522 lung,652 nM
same,TGI,NCI-H522 lung,1440 nM
same,GI50,NCI/ADR-RES ovarian,9960 nM
same,TGI,NCI/ADR-RES ovarian,47700 nM
same,GI50,OVCAR-3 ovarian,844 nM
same,TGI,OVCAR-3 ovarian,2950 nM
same,GI50,OVCAR-4 ovarian,743 nM
same,TGI,OVCAR-4 ovarian,2390 nM
same,GI50,OVCAR-5 ovarian,1330 nM
same,TGI,OVCAR-5 ovarian,5380 nM
same,GI50,OVCAR-8 ovarian,672 nM
same,TGI,OVCAR-8 ovarian,2840 nM
same,GI50,PC-3 prostate,664 nM
same,TGI,PC-3 prostate,3470 nM
same,GI50,RPMI-8226 leukemia,1150 nM
same,TGI,RPMI-8226 leukemia,2900 nM
same,GI50,RXF 393 renal,683 nM
same,TGI,RXF 393 renal,1410 nM
same,GI50,SF-268 CNS,644 nM
same,TGI,SF-268 CNS,1470 nM
same,GI50,SF-295 CNS,1150 nM
same,TGI,SF-295 CNS,7230 nM
same,GI50,SF-539 CNS,205 nM
same,TGI,SF-539 CNS,862 nM
same,GI50,SK-MEL-2 melanoma,1110 nM
same,TGI,SK-MEL-2 melanoma,3050 nM
same,GI50,SK-MEL-28 melanoma,5740 nM
same,TGI,SK-MEL-28 melanoma,12000 nM
same,GI50,SK-MEL-5 melanoma,6000 nM
same,TGI,SK-MEL-5 melanoma,12500 nM
same,GI50,SK-OV-3 ovarian,2690 nM
same,TGI,SK-OV-3 ovarian,9930 nM
same,GI50,SN12C renal,774 nM
same,TGI,SN12C renal,2770 nM
same,GI50,SNB-19 CNS,950 nM
same,TGI,SNB-19 CNS,4010 nM
same,GI50,SNB-75 CNS,185 nM
same,TGI,SNB-75 CNS,982 nM
same,GI50,SR leukemia,60.1 nM
same,TGI,SR leukemia,1620 nM
same,GI50,SW-620 colon,589 nM
same,TGI,SW-620 colon,2240 nM
same,GI50,T-47D breast,1810 nM
same,TGI,T-47D breast,9350 nM
same,GI50,TK-10 renal,1470 nM
same,TGI,TK-10 renal,4360 nM
same,GI50,U251 CNS,734 nM
same,TGI,U251 CNS,1890 nM
same,GI50,UACC-257 melanoma,4290 nM
same,TGI,UACC-257 melanoma,11100 nM
same,GI50,UACC-62 melanoma,1770 nM
same,TGI,UACC-62 melanoma,7870 nM
same,GI50,UO-31 renal,1870 nM
same,TGI,UO-31 renal,8040 nM
